Test results from publication PMC11876671, “Investigating blood–brain barrier penetration and neurotoxicity of natural products for central nervous system drug development” (Scientific Reports, 2025).
Where a name gives a salt, the structure may show the parent alone.

Assay: in vitro
Details: PAMPA, PAMPA-BBB Pe

For `COc1cc2c(cc1OC)[C@@]13CCN4CC5=CCO[C@H]6CC(=O)N2[C@H]1[C@H]6[C@H]5C[C@H]43` [BRUCINUM], which Papp is on record?
Its Papp is 16 ×10⁻⁶ cm/s.

Same assay, conditions: PAMPA, PAMPA-BBB Pe(10^-6 cm/sec)

With `CC(=O)OCC(=O)[C@@]1(O)CC[C@H]2[C@@H]3CCC4=CC(=O)CC[C@]4(C)[C@H]3[C@@H](O)C[C@@]21C` [HYDROCORTISONE ACETATE] as the molecule, how does the Papp read?
The Papp was < 1 ×10⁻⁶ cm/s.

Which Papp does the source give for `CN[C@H](CC(C)C)C(=O)N[C@H]1C(=O)N[C@@H](CC(N)=O)C(=O)N[C@H]2C(=O)N[C@H]3C(=O)N[C@H](C(=O)N[C@H](C(=O)O)c4cc(O)cc(O)c4-c4cc3ccc4O)[C@H](O)c3ccc(c(Cl)c3)Oc3cc2cc(c3O[C@@H]2O[C@H](CO)[C@@H](O)[C@H](O)[C@H]2O[C@H]2C[C@](C)(N)[C@H](O)[C@H](C)O2)Oc2ccc(cc2Cl)[C@H]1O` [VANCOMYCIN HYDROCHLORIDE] here?
The Papp was < 1 ×10⁻⁶ cm/s.

Same assay, conditions: PAMPA, PAMPA-BBB Pe(10^-6 cm/sec), Table S3: compounds exhibiting low PAMPA-BBB permeability

Which Papp does the source give for `C[C@H]([C@H](O)CCC(C)(C)O)[C@H]1CC[C@@]2(O)C3=CC(=O)[C@@H]4C[C@@H](O)[C@@H](O)C[C@]4(C)[C@H]3CC[C@]12C` [ECDYSONE] here?
The Papp was < 1 ×10⁻⁶ cm/s.

For `Nc1ncnc2c1ncn2[C@@H]1O[C@H](CO)[C@@H](O)[C@H]1O` [ADENOSINE], which Papp is on record?
The Papp was < 1 ×10⁻⁶ cm/s.

For `O=C/C=C/c1ccccc1`, which Papp is on record?
Its Papp is < 1 ×10⁻⁶ cm/s.

Which Papp does the source give for `C[C@H]1O[C@@H](Oc2c(-c3ccc(O)c(O)c3)oc3cc(O)cc(O)c3c2=O)[C@H](O)[C@H](O)[C@H]1O` [QUERCITROSIDE] here?
The Papp was < 1 ×10⁻⁶ cm/s.

With `CC(C=O)Cc1ccc(C(C)C)cc1` (stereo not drawn) [CYCLAMEN ALDEHYDE] as the molecule, how does the Papp read?
The Papp was 8.2 ×10⁻⁶ cm/s.

With `C[C@@H]1O[C@@H](O[C@H]2[C@H](Oc3cc(O)c4c(=O)cc(-c5ccc(O)cc5)oc4c3)O[C@H](CO)[C@@H](O)[C@@H]2O)[C@H](O)[C@H](O)[C@H]1O` [RHOIFOLIN] as the molecule, how does the Papp read?
The Papp was < 1 ×10⁻⁶ cm/s.

With `OC[C@H]1O[C@@H](Oc2cc(O)cc(/C=C/c3ccc(O)cc3)c2)[C@H](O)[C@@H](O)[C@@H]1O` [POLYDATIN] as the molecule, how does the Papp read?
Its Papp is < 1 ×10⁻⁶ cm/s.

For `N[C@@H](Cc1cc(I)c(O)c(I)c1)C(=O)O` [L-DIIODOTYROSINE], which Papp is on record?
Its Papp is < 1 ×10⁻⁶ cm/s.

For `CNCC(O)c1ccc(O)c(OC)c1` (stereo not drawn) [METANEPHRINE HYDROCHLORIDE], which Papp is on record?
The Papp was < 1 ×10⁻⁶ cm/s.

Which Papp does the source give for `C[C@]1(OC(=O)/C=C/c2ccccc2)C[C@@H](O)[C@]2(O)C=CO[C@@H](O[C@@H]3O[C@H](CO)[C@@H](O)[C@H](O)[C@H]3O)[C@@H]21` [HARPAGOSIDE] here?
Its Papp is < 1 ×10⁻⁶ cm/s.

Same assay, conditions: PAMPA, PAMPA-BBB Pe, Table S2: compounds exhibiting moderate to high PAMPA-BBB permeability

With `C=C[C@H]1CN2CCc3c([nH]c4ccccc34)[C@H]2C[C@@H]1/C(=C\OC)C(=O)OC` [HIRSUTEINE] as the molecule, how does the Papp read?
The Papp was 118 ×10⁻⁶ cm/s.

Which Papp does the source give for `O=Cc1cc2ccccc2o1` [2-FORMYLBENZOFURAN] here?
Its Papp is 154 ×10⁻⁶ cm/s.

For `O=C(/C=C/c1ccccc1)NCCO` [IDROCILAMIDE], which Papp is on record?
Its Papp is 211 ×10⁻⁶ cm/s.

Assay: not given
Details: PAMPA

For `Cc1nccc2c1[nH]c1ccccc12` [HARMAN], which “PAMPA-BBB Pe” value is on record?
The value was 60 10^-6 cm/sec.

Same assay, conditions: Table S2: compounds exhibiting moderate to high PAMPA-BBB permeability

With `CO[C@H]1C=C2CCN(C)[C@H]2C2c3cc4c(cc3C(=O)O[C@@H]21)OCO4` (stereo partly drawn) [NCGC00179416-02] as the molecule, how does the “PAMPA-BBB Pe” value read?
The value was 19 10^-6 cm/sec.

With `COc1cc(C(=O)O[C@H]2CC(C)=CCC/C(C)=C/[C@@H](O)C2C(C)C)ccc1O` (stereo partly drawn) [NCGC00163636-01] as the molecule, how does the “PAMPA-BBB Pe” value read?
The value was 88 10^-6 cm/sec.

For `COC(=O)C1=CO[C@@H](C)[C@@H]2CN3CC[C@]4(C(=O)Nc5c4ccc(OC)c5OC)[C@H]3C[C@H]12` [NCGC00160292-01], which “PAMPA-BBB Pe” value is on record?
Its value is 46 10^-6 cm/sec.

Same assay, conditions: Table S3: compounds exhibiting low PAMPA-BBB permeability

With `Cc1cc(O)c2c(c1O)C(=O)C(O)=C(O)C2=O` [NCGC00160271-01] as the molecule, how does the “PAMPA-BBB Pe(10^-6 cm/sec)” value read?
Its value is 4.8 10^-6 cm/sec.

Which “PAMPA-BBB Pe(10^-6 cm/sec)” value does the source give for `CN(N=O)c1cc(O)ccc1O` [NCGC00261088-01] here?
Its value is <1 10^-6 cm/sec.

With `Cc1cc(O)c(C=O)c(O)c1C(=O)O` [NCGC00095742-01] as the molecule, how does the “PAMPA-BBB Pe(10^-6 cm/sec)” value read?
The value was 2.7 10^-6 cm/sec.

For `COc1ccc2[nH]cc(CCO)c2c1` [NCGC00163352-01], which “PAMPA-BBB Pe(10^-6 cm/sec)” value is on record?
Its value is 9.4 10^-6 cm/sec.

With `Cn1cnc2c(ncn2[C@@H]2O[C@H](CO)[C@@H](O)[C@H]2O)c1=N` [NCGC00163305-01] as the molecule, how does the “PAMPA-BBB Pe(10^-6 cm/sec)” value read?
Its value is <1 10^-6 cm/sec.

Which “PAMPA-BBB Pe(10^-6 cm/sec)” value does the source give for `C/C=C(\C)C(=O)O[C@H]1CC(C)=C2C(=O)C=C(C)C2[C@@H]2OC(=O)[C@@](C)(OC(=O)C=C(C)C)C21` (stereo partly drawn) [NCGC00160270-01] here?
The value was 5.7 10^-6 cm/sec.

Same assay, conditions: category in words

For `CC(=O)[C@H]1CC[C@H]2[C@@H]3CCC4=CC(=O)CC[C@]4(C)[C@H]3CC[C@]12C` [progesterone, reference compound], which PAMPA-BBB permeability category is on record?
Its PAMPA-BBB permeability category is “high permeability”.
